Among the data in PubChem BioAssay (NCI) are TGI values, retold here.

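Results reflect a 48-hour exposure of cells in 96-well plates to compound at five concentrations. The concentration for full growth arrest is given as TGI.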

Holding throughout (test): inhibition of tumour cell growth, NCI panel, 48 h
Experiment [1] has as its system SW-620 colon.
Experiment [2] relates to SF-268 CNS.
The test system of experiment [3] is LOX IMVI melanoma.
In experiment [4] the test system is SK-MEL-2 melanoma.
Experiment [5] relates to KM12 colon.
The test system of experiment [6] is A549 NSCLC.
Experiment [7] concerns SF-539 CNS.
The test system of experiment [8] is SN12C renal.
In experiment [9] the test system is K-562 leukemia.
Experiment [10] has as its system CCRF-CEM leukemia.

Regarding `O=C1O[C@H](c2ccc3c(c2)OCO3)[C@H]2CO[C@@H](c3ccc4c(c3)OCO4)[C@@H]12`, the TGI in experiment [1], in [2], in experiment [3], in experiment [4], in [5] and in [6] was greater than 100 µM throughout. In addition, the TGI in [7], in experiment [8] and in experiment [9] was greater than 100 µM each time.

Regarding `CC(C)CC(O)P(=O)(O)O` (stereo not drawn), the TGI in experiment [1], in experiment [4], in [5], in [6], in experiment [8] and in experiment [9] was greater than 100 µM in each case.

`Nc1ccn(C2OC(CO)C(O)C2O)c(=O)c1` (stereo not drawn): the TGI is greater than 625 µM in experiment [1]; greater than 625 µM in [2]; 446 µM in experiment [3]; greater than 625 µM in [10]; greater than 625 µM in experiment [5]; greater than 625 µM in experiment [6]. Besides, the TGI in experiment [7] is greater than 625 µM; in experiment [8], 381 µM.

Take `CSc1ncnc2c1ncn2CCC#N`: the TGI in [1], in experiment [2], in experiment [3], in [10], in experiment [5] and in experiment [6] was greater than 100 µM each time. Besides, the TGI in experiment [7], in experiment [8] and in experiment [9] was greater than 100 µM each time.

`CCNC(=O)Nc1cccc(NC(=O)NCC)n1`: the TGI in experiment [1], in [2], in [10], in [5], in experiment [6] and in experiment [7] was greater than 100 µM throughout. The TGI in experiment [8] and in [9] was greater than 100 µM each time.

For `COc1ccc2cc(C(C)C(=O)N3CCOC3=O)ccc2c1` (stereo not drawn), the TGI in [1], in [2], in [3], in experiment [10], in experiment [5] and in [6] was greater than 100 µM throughout. For the same compound, the TGI in experiment [7], in [8] and in [9] was greater than 100 µM in each case.

On to `COc1cc2c3c(c1OC)C1(C=CC(=O)C=C1)C[C@H]3N(C)CC2`, for which the TGI in experiment [1], in experiment [2], in experiment [3], in experiment [4], in experiment [5] and in experiment [6] was greater than 100 µM throughout. The TGI in experiment [7] and in [8] was greater than 100 µM throughout.

As to `Cn1c2ccccc2c(=O)c2cccc(C(=O)NC(CCCN=C(N)N)C(=O)O)c21` (stereo not drawn), the TGI in experiment [1], in experiment [2], in experiment [3], in [4], in [5] and in experiment [6] was greater than 100 µM in each case. The TGI in experiment [7], in [8] and in experiment [9] was greater than 100 µM throughout.

Consider `C=C1CN2CC(=C)CN(C1)CS(=O)(=O)N1CC(=C)CN(CC(=C)C1)S(=O)(=O)N1CC(=C)CN(CC(=C)C1)S(=O)(=O)C2`, for which the TGI in [1], in experiment [2], in experiment [3], in [4], in experiment [5] and in [6] was greater than 100 µM each time. In addition, the TGI in [7] was 39.9 µM; in experiment [8] it was greater than 100 µM; in [9] it was greater than 100 µM.

With `O=C1c2ccccc2C2(c3ccc(Cl)cc3)N[C@H]3CCCC[C@@H]3N12` (stereo partly drawn), the TGI in experiment [1], in experiment [2], in experiment [3], in experiment [10], in experiment [5] and in experiment [6] was greater than 100 µM throughout. The TGI in [8] and in [9] was greater than 100 µM throughout.

For the compound `CCOc1ccc(/C=C2/C(=O)N=C(NC(C)=O)N2C)cc1`, the TGI in experiment [1], in experiment [2], in experiment [3], in [4], in experiment [5] and in [6] was greater than 100 µM throughout. For the same compound, the TGI in experiment [7] and in experiment [8] was greater than 100 µM in each case.

Consider `C=C([C@@]1(O)C[C@H]2[C@H](CCC2(OC)OC)[C@@H]2c3ccccc3O[C@@H]21)[Si](C)(C)C`, for which the TGI in experiment [1], in experiment [2], in experiment [3], in [4], in experiment [5] and in [6] was greater than 100 µM each time. Besides, the TGI in experiment [7], in experiment [8] and in [9] was greater than 100 µM each time.

Consider `O=C1c2cccnc2-c2nccc3c2c1nc1cc(Br)ccc13`, for which the TGI in experiment [1] worked out at 0.162 µM; in [2], 0.555 µM; in experiment [3] it was 0.205 µM; in [10], 0.465 µM; in experiment [5], 0.338 µM; in [6], 0.309 µM. Further, the TGI came to 0.709 µM in experiment [7] and 0.412 µM in experiment [8].
